Assays:
[1] = system: human mammary carcinoma (MCF7); test: MTT cytotoxicity assay, MCF7; assay type: cell-based; conditions: light or radiation study, MCF7, 660 nm irradiation 12 J/cm^2
Procedure: DMEM medium was replaced with saline to prevent false positive interference. Then the cells were exposed to different following treatments: 1) cells incubated with PBS; 2) cells incubated with PBS under 660 nm irradiation (20 mW/cm2, 10 min); 3) cells incubated with QTCy7-R; 4) cells incubated with QTCy7-R under 660 nm irradiation (20 mW/cm2, 10 min). After being different treated, the cells were stained with Calcein-AM and Propidium Iodide (PI) according to the manufacture instruction. Then the confocal fluorescence imaging was carried out and recorded with a 10 × objective lens.
Cytotoxicity was tested by the reduction of methyl thiazolyl tetrazolium to formazan by succinic acid dehydrogenase in the mitochondria of living cells (MTT assay). […] The MTT solution was carefully removed and 100 μL DMSO was added to dissolve formazan, and the absorbance of each well was measured by a multifunctional microplate reader at 570 nm and 630 nm. […]
Where “OD” represent the absorbance at 570 nm and 630 nm, “ps” and “control” represent experimental groups and control groups, respectively. […]
And the fluorescence signals were monitored at different post -injection time by a NightOWL II LB983 small animal in vivo imaging system (German). […]

[2] = system: 4T1 subcutaneous solid tumor; test: Tumor suppression (PDT) in 4T1-subcutaneous tumor model; assay type: in vivo, BALB/c mice; conditions: for tumor volume increase: no irradiation
Procedure: In view of the observation that the fluorescence intensity of QTCy7-Ac in the tumor site peaked around 2–2.5 h after intravenous injection, this period was chosen as the PDT time window. […] Even so, this approach achieved partial tumor suppression; the tumor volume was 1-fold compared with the initial situation. […] After PDT treatment, the tumor kept shrinking in size (Figure S22a), which achieved a tumor suppression rate of nearly 95% (Figure S22b). Nevertheless, the tumors in PBS groups increased quickly with a 6-fold increment compared with the initial volume whether exposed to irradiation or not, which ruled out the influence of light on tumor growth. In addition, there was virtually no difference between the intratumoral and intravenous injection groups treated with QTCy7-Ac, with tumor volumes increasing by 6-fold and 7-fold, respectively, which excluded the cytotoxicity of the dye alone. […]
(§1) of major organs, the mice L) was intravenously injected with QTCy7-Ac (200 μM, 100 μL) 2 hours in advance were killed and the main organs and tumors were removed for […]
(§2) Tumor suppression experiments of 4T1-subcutaneous tumor model
(§3) To confirm the in vivo PDT efficacy of QTCy7-Ac, all the BALB/c mice were divided into 6 groups: 1) saline injection; 2) saline injection with 660 nm irradiation (100 mW/cm2, 15 min); 3) QTCy7-Ac (200 μM, 100 μL) intratumoral injection; 4) QTCy7-Ac (200 μM, 100 μL) intratumoral injection with 660 nm irradiation (100 mW/cm2, 15 min); 5) QTCy7-Ac (200 μM, 100 μL) intravenous injection; 6) QTCy7-Ac (200 μM, 100 μL) intravenous injection with 660 nm irradiation (100 mW/cm2, 15 min); When the volume of subcutaneous tumors reached about 100 mm 3, mice were injected with PBS or QTCy7-Ac, respectively. After 2 h post-injection, tumor region was irradiated with 650 nm light. In the following half month, the tumor volume of all the mice was measured every two days by a vernier caliper. The volume of tumors was calculated by the following formula: […]
Where “V” represent the tumor volume, “a” represent greatest longitudinal diameter (length) and “b” represent the greatest transverse diameter (width).
The in vivo biocompatibility was evaluated by using measurement mice body weight and H&E slice histological analysis. After the PDT treatment, the mice were euthanized, and main organs including heart, liver, spleen, lung, kidneys and tumors were harvested for histological analysis by means of hematoxylin-eosin (H&E) staining.
Data were expressed as mean ± standard deviation. Student's t test was used to evaluate the statistical significance. P values < 0.05 were regarded statistically

[3] = In vivo biosafety (body weight, H&E staining of major organs); design: species or system BALB/c mice
Procedure: The efficacy and safety of each therapeutic group were also evaluated by performing a hematoxylin and eosin (H&E) staining assay of major organs and tumor tissue (Figures 10g and S23). […]
as §1, §2
as §3, with “After 2 h post-injection, tumor region was irradiated with 650 nm light.” left out
The in vivo biocompatibility was evaluated by using measurement mice body weight and H&E slice histological analysis. […]
Data were expressed as mean ± standard deviation. […]

HepG2 cells = test: Lactate dehydrogenase (LDH) release into cell culture medium; assay type: cell-based, human; conditions: under irradiation
Procedure: Next, in order to verify the disruption effect on cell structural integrity of the ^1O2 generation by QTCy7-R under irradiation, JC-1 staining imaging was conducted to monitor the mitochondria membrane potential. […] On the other hand, cell membrane damage caused by the photooxidation of QTCy7-Ac and QTCy7-CHO could be confirmed by a visualized observation. […] Furthermore, the lactate dehydrogenase (LDH) content in cell culture medium was measured to characterize the extent of cell membrane damage.[49]
QTCy7-Ph, (e) QTCy7-Ac, (f) QTCy7-CHO, (g) TCy7 and (h) MB under 660 nm irradiation (4 mW/cm2) in PBS. (i) The relative singlet oxygen yield of different compounds in PBS.
Figure S19. (a) The cellular uptake of QTCy7-R in HepG2 cells (QTCy7-Me/QTCy7-Ph: λex = 640 […]
μm). (b) The fluorescence intensity of QTCy7-R in cell at different time. (c) The LDH release rate of cells under different treatment conditions.
Figure S20. The enlarged images of (a) QTCy7-Ac and (b) QTCy7-CHO caused cell membrane destruction at 0 min and 4 min. Yellow arrows indicate the formation of distinct bubble-like structures on cell membrane. (λex = 640 nm, λem = 650-750 nm, scale bars: 20 μm). […]

Compound: CCOC(=O)C1=C/C(=C\C=C2/Sc3ccccc3N2CC)C(=O)C(/C=C/c2sc3ccccc3[n+]2CC)=C1 [QTCy7-Ac]
- IC50 [1]: ~600 nM
- H&E staining of tumor tissue ([2]; QTCy7-Ac-mediated PDT): Conspicuous morphological damage
- tumor volume compared with initial ([2]; intratumoral injection + 660 nm, 100 mW/cm^2, 15 min): 1 fold
- tumor volume increase ([2]; intratumoral injection): 6 fold
- tumor suppression rate ([2]; intravenous injection + 660 nm, 100 mW/cm^2, 15 min): ~95%
- tumor volume increase ([2]; intravenous injection): 7 fold
- H&E staining of major organs (heart, liver, spleen, lung, kidney) ([3]; after 16 days of treatment): not observed
- body weight changes ([3]; during the treatment): no abnormal body weight changes
- LDH release rate (HepG2 cells): about 70%

Source: paper PMC10451034, “Highly Efficient Photosensitizers with Molecular Vibrational Torsion for Cancer Photodynamic Therapy” (ACS Central Science, 2023)
